In article PMC12057363 (Antimicrobial Agents and Chemotherapy, 2025):
Several values for one entry are separate records, joined by “and”; a condition that tells them apart may be missing. Equal entries are not always repeated. Where two headings read alike, the source gives them in different places.

Experiments:
YFV [1] = conditions: cited from earlier work
in vitro [2] = conditions: African green monkey
cell lines = conditions: cited from earlier work
YFV-17D [3] = assay: microbe, parasite or virus in culture; assay type: cell-based; conditions: Yellow fever virus; for EC90: read-out: Anti-YFV-17D activity Huh-7 EC90
YFV-17DD [4] = conditions: mouse, in vivo; cited from earlier work
YFV-17D [5] = assay: microbe, parasite or virus in culture; assay type: cell-based; conditions: Yellow fever virus, Huh-7, 72 h; for EC50: read-out: Anti-YFV-17D activity 3D spheroids EC50; for EC90: read-out: Anti-YFV-17D activity 3D spheroids EC90
YFV-DakH1279 = assay: microbe, parasite or virus in culture; assay type: cell-based, Yellow fever virus; conditions: for EC50 / EC90: Yellow fever virus, Huh-7, 48 h; for EC50: read-out: Anti-YFV-DakH1279 EC50 (reduction in infectious virus); for EC90: read-out: Anti-YFV-DakH1279 EC90 (reduction in infectious virus)
Huh-7 cells = assay: cells; conditions: Homo sapiens, Huh-7, 336 h
YFV-17D [6] = assay: microbe, parasite or virus in culture; assay type: cell-based; conditions: Yellow fever virus, Huh-7, 72 h; for EC50: read-out: Anti-YFV-17D EC50 (reduction in infectious virus); for EC90: read-out: Anti-YFV-17D EC90 (reduction in infectious virus)
YFV-17D [7] = assay: microbe, parasite or virus in culture; assay type: cell-based; conditions: Yellow fever virus, Macrophage, 72 h; for EC50: read-out: Anti-YFV-17D activity MDM EC50; for EC90: read-out: Anti-YFV-17D activity MDM EC90
dengue virus (DENV) = conditions: read-out: EC50 against dengue virus; cited from earlier work
[8] = test system: Japanese encephalitis virus (JEV); conditions: read-out: EC50 against Japanese encephalitis virus; cited from earlier work
[9] = rat, in vivo; cited from earlier work
YFV-17DD [10] = conditions: mouse, in vivo
Zika virus (ZIKV) = conditions: read-out: EC50 against Zika virus; cited from earlier work
HCV = conditions: read-out: EC50 against HCV; cited from earlier work
[11] = test system: clinical YFV isolate (WT306); conditions: mouse, in vivo, 10 mg/kg
in vitro [12] = conditions: human
YFV [13] = conditions: mouse, in vivo; cited from earlier work
in vitro [14] = conditions: human; remark: listed apart in the source
in vitro [15] = conditions: human; remark: listed apart in the source
[16] = Huh-7, 72 h, read-out: Anti-YFV-17D activity Huh-7 EC50
[17] = read-out: Mitotoxicity (Huh-7) IC50 MtDNA
[18] = read-out: Mitotoxicity (Huh-7) IC50 nDNA

SMILES	CC50 (in vitro [2])	cytotoxicity CC50 (cell lines)	EC50 (YFV-17D [3]; [16])	EC90 (YFV-17D [3]; Huh-7, 72 h)	EC50 (YFV-17D [5])	EC90 (YFV-17D [5])	Average infectious YFV yield, YFV-DakH1279 (YFV-DakH1279)	EC50 (YFV-DakH1279)	EC90 (YFV-DakH1279)	IC50 (Huh-7 cells; [17])	IC50 (Huh-7 cells; [18])	EC50 (YFV-17D [6])	EC90 (YFV-17D [6])	EC50 (YFV-17D [7])	EC90 (YFV-17D [7])	also measured
Nc1ncnc2c([C@@H]3N[C@H](CO)[C@@H](O)[C@H]3O)c[nH]c12 [Galidesivir]	–	–	–	–	–	–	–	–	–	–	–	–	–	–	–	activity against YFV in vitro (YFV [1]): active
CC(C)OC(=O)[C@H](C)N[P@](=O)(OC[C@H]1O[C@@H](n2ccc(=O)[nH]c2=O)[C@@](F)(Br)[C@@H]1O)Oc1ccccc1 [Compound 2-FBU]	> 100000 nM	68.9–>100	900 ± 800 nM	8100 ± 3500 nM	2200 ± 200 nM	7700 ± 300 nM	4.0x10^4 ± 6.1x10^3 FFU/mL and 2.4x10^4 ± 9.8x10^3 FFU/mL and 3.3x10^3 ± 2.4x10^3 FFU/mL and 2.8x10^2 ± 1.7x10^2 FFU/mL	1700 ± 1100 nM	3500 ± 2300 nM	40900 nM	> 50000 nM	1200 ± 500 nM	8600 ± 3100 nM	200 ± 100 nM	3000 ± 1600 nM	log reduction in YFV genome copies in the liver tissue (YFV-17DD [4]): 0.7 log; percent reduction in YFV genome copies in the liver tissue (YFV-17DD [4]): ~ 80%
C[C@@]1(O)[C@H](O)[C@@H](CO)O[C@H]1n1cc(F)c2c(N)ncnc21 [DFA, 7-deaza-7-fluoro-2′-C-methyladenosine]	92400 ± 8100 nM	>100–>200	900 ± 600 nM	3400 ± 500 nM	5500 ± 1300 nM	12600 ± 1900 nM	–	2400 ± 1900 nM	5000 ± 3100 nM	> 50000 nM	> 50000 nM	800 ± 400 nM	5600 ± 2600 nM	500 ± 400 nM	1000 ± 600 nM	EC50 (dengue virus (DENV)): 500 to 1000 nM; EC50 (YFV-17D [3]; Huh-7, read-out: EC50 against YFV-17D in vitro (summary range)): 900 to 5500 nM; EC50 [8]: 900 nM; pharmacokinetic profile [9]: favorable pharmacokinetic profile; body weight (YFV-17DD [10]): no significant changes; inflammatory cell infiltration, infiltrate score (YFV-17DD [10]): ~ 1; total white blood cell numbers (YFV-17DD [10]): no significant changes; ALT levels (YFV-17DD [10]; 10 mg/kg): significantly reduced; YFV-17DD replication in the livers (qRT-PCR) (YFV-17DD [10]; 10 mg/kg): significantly reduced; liver pathology by histopathological analysis (YFV-17DD [10]; 10 mg/kg): reduced liver pathology; overall health status (YFV-17DD [10]; 10 mg/kg): no notable impact; EC50 (Zika virus (ZIKV)): 3700 nM; EC50 (HCV): 70 to 900 nM; ALT levels [11]: markedly reduced; YFV-mediated liver pathology (histology) [11]: significantly reduced; clinical severity (clinical disease score) [11]: modest but significant decrease; leukocytosis (total circulating leukocytes) [11]: significantly reduced; total portion of granulocytes in the blood [11]: significantly reduced; virus replication in the liver, infectious virions (plaque assay) [11]: significantly reduced; virus replication in the liver, total genome copy numbers [11]: significantly reduced
CC(C)OC(=O)[C@H](C)N[P@](=O)(OC[C@H]1O[C@@H](n2ccc(=O)[nH]c2=O)[C@](C)(F)[C@@H]1O)Oc1ccccc1 [Sofosbuvir]	> 100000 nM	–	600 ± 600 nM	3000 ± 2500 nM	–	–	2.7x10^4 ± 1.1x10^4 FFU/mL and 1.4x10^4 ± 1.2x10^4 FFU/mL and 2.2x10^3 ± 1.2x10^3 FFU/mL and 1.8x10^2 ± 1.2x10^2 FFU/mL	1600 ± 1300 nM	3100 ± 2400 nM	> 50000 nM	> 50000 nM	300 ± 100 nM	1200 ± 100 nM	1000 ± 700 nM	2400 ± 1500 nM	CC50 (in vitro [12]): > 100000 nM; efficacy against YFV in mice (YFV [13]): little efficacy; CC50 (in vitro [14]): > 100000 nM; CC50 (in vitro [15]): 85600 ± 11600 nM
